Measured values as given in patent publication US9708279B2, “2-acylaminothiazoles for the treatment of cancer” (UNIVERSITA′ DEGLI STUDI DI MILANO-BICOCCA, priority 2013, dated 2017).
Like-named read-outs stand apart in the source and are kept apart here.

Legend:
[1] = test system: parental untransformed BaF3 cells; assay: Tritiated thymidine uptake cell proliferation assay, parental BaF3; assay type: cell-based; conditions: Mus musculus
Procedure: (§1) Tritiated Thymidine Uptake Cell Proliferation Assay
The parent untransformed BaF3 cells and ALK-negative cells are used as controls. Cells are seeded in U-bottomed 96-well plates at 10 000 cells/well in a volume of 100 μL in supplemented medium. In the case of the parent untransformed BaF3 cells, the medium is supplemented with IL-3. Serial dilutions of inhibitors are added to the appropriate wells and volumes adjusted to 200 μL. Controls were treated with the equivalent volume of vehicle, DMSO, alone. Plates are incubated at 37° C. for 72 h. ^3[H]-thymidine (1 μCiCi/well) is added for the last 8 h of incubation. Cells are harvested on to paper filters and ^3[H]-thymidine incorporation is measured using a β scintillation counter (1430 MicroBeta, Wallac, Turku, Finland). The 50% inhibitory concentration (IC50) is defined as the concentration of inhibitor, expressed in micromolar, that give a 50% decrease in ^3[H]-thymidine uptake compared with controls.

[2] = test system: BaF3 cells transformed with the oncogenic fusion protein NPM/ALK; assay: Tritiated thymidine uptake cell proliferation assay, BaF3 NPM/ALK; assay type: cell-based; conditions: for IC50: BaF3 NPM/ALK cells, 72 h, 3H-thymidine uptake, read-out: NPM/ALK WT IC50; for Selectivity Index (WT): parental BaF3 versus BaF3 NPM/ALK WT
Procedure: as §1
The parent untransformed BaF3 cells and ALK-negative cells are used as controls. Cells are seeded in U-bottomed 96-well plates at 10 000 cells/well in a volume of 100 μL in supplemented medium. In the case of the parent untransformed BaF3 cells, the medium is supplemented with IL-3. Serial dilutions of inhibitors are added to the appropriate wells and volumes adjusted to 200 μL. Controls were treated with the equivalent volume of vehicle, DMSO, alone. Plates are incubated at 37° C. for 72 h. ^3[H]-thymidine (1 μCiCi/well) is added for the last 8 h of incubation.

[3] = target: recombinant wild-type ALK kinase (rALK) (Homo sapiens (Human), UniProt Q9UM73); assay: ELISA-based in vitro kinase assay, wild-type ALK; assay type: biochemical; conditions: 0.3 mM ATP, read-out: ALK WT IC50
Procedure: ELISA-Based in vitro Kinase Assay
GST-tagged recombinant wild-type or L1196M mutated ALK kinase (rALK) was expressed in Sf9 insect cells using the pBacPAK baculovirus vector system (Clontech) and purified using Glutathione Sepharose 4B affinity beads (GE Healthcare). Recombinant 3C protease was used to remove the GST tag. Purified ALK was used to screen inhibitors in the ELISA-based kinase assay, as follows: Nunc-Immuno 96-well plates were incubated overnight at 30° C. with coating solution containing 2 μg of a specific ALK peptide substrate ([sequence]) in PBS. Wells were then washed with 200 μL of wash buffer (PBS-Tween 0.05%) and incubated with 4% BSA in PBS for at least 2 h at 30° C. The kinase reaction was performed in the presence of 50 mM Tris pH 7.5, 5 mM MnCl2, 5 mM MgCl2, 0.3 mM ATP and purified rALK in a total volume of 100 μL/well at 30° C. for 15 min. For inhibitor testing the reaction mix was preincubated with inhibitor or vehicle for 10 min at room temperature before transferring to the ELISA plate. After the reaction, the wells were washed 5 times with 200 uL of wash buffer. Phosphorylated peptide was detected using 100 μL/well of a mouse monoclonal anti-phosphotyrosine antibody (clone 4G10 UpstateBiotech Ltd) diluted 1:2000 in PBS+4% BSA. After 30 min incubation at room temperature the antibody was removed and wells were washed as described above. 100 μL of a secondary antibody (anti-mouse IgG, Horseradish Peroxidase linked whole antibody, Amersham Pharmacia Biotech) diluted 1:1000 in PBS+4% BSA was added to each well and the plate was incubated again for 30 min at room temperature before washing as above. The plate was developed using 100 μL/well TMB Substrate Solution (Pierce) and the reaction was stopped by adding an equal volume of 1M H2SO4. Finally, the absorbance was read at 450 nm using an ELISA plate reader (Bio-Rad).

[4] = parental BaF3 cells (IL-3), 72 h, 3H-thymidine uptake, read-out: Parental IC50

Chain of recombinant wild-type ALK kinase (rALK) (Q9UM73 19-1620): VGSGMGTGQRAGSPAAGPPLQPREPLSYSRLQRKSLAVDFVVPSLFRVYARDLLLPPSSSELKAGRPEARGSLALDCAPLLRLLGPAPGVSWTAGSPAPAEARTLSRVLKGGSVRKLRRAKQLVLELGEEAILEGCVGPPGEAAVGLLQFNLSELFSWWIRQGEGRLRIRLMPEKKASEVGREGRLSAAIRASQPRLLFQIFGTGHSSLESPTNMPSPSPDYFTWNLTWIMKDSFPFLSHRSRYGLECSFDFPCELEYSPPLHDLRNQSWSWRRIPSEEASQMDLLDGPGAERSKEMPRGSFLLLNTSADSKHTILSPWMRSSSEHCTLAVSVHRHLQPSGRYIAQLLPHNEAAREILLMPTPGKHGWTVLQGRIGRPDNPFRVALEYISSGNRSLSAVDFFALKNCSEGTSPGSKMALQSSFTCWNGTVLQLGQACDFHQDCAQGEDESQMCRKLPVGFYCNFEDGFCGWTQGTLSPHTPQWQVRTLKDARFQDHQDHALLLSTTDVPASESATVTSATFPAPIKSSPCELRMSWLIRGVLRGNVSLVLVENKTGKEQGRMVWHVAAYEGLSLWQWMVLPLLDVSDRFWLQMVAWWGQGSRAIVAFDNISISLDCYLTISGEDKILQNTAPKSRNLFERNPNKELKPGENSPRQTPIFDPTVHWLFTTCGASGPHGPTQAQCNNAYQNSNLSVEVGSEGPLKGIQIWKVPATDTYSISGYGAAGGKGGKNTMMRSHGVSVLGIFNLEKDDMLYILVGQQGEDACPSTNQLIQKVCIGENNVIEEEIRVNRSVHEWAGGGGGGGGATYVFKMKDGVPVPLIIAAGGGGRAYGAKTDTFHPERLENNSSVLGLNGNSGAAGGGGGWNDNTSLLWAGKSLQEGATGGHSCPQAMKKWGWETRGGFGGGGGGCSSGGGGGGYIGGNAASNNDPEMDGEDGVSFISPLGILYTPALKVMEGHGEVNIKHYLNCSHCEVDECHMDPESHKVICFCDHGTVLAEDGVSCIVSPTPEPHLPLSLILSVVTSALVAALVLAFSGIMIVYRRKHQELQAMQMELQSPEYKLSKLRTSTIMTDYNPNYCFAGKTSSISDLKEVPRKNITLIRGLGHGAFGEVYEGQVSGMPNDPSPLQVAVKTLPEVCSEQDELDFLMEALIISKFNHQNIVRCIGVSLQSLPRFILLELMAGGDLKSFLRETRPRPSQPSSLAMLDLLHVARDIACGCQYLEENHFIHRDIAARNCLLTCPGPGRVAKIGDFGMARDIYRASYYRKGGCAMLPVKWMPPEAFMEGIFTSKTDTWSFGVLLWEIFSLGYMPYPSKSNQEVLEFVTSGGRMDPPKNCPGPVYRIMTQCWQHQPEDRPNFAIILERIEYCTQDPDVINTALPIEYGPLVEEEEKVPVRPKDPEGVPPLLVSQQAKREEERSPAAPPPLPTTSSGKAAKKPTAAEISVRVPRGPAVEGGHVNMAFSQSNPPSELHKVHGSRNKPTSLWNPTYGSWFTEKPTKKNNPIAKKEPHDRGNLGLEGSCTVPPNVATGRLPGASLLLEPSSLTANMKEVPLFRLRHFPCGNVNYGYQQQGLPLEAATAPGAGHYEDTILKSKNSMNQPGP

Compound | IC50 [1, 4] [µM] | IC50 [2] [µM] | Selectivity Index (WT) [2] | IC50 [3] [µM] | IC50 ([1]; BaF3, read-out: Parental IC50) [µM]
COc1ccc(C#Cc2cc(-c3csc(NC(=O)c4ccc(CN5CCN(C)CC5)cc4)n3)ccc2C)cc1 [Example 6, N-(4-(3-((4-methoxyphenyl)ethynyl)-4-methylphenyl)thiazol-2-yl)-4-((4-methylpiperazin-1-yl)methyl)benzamide] | 6.6 | 2.1 | 3 | > 100 | –
Cc1ccc(-c2csc(NC(=O)c3ccc(CN4CCN(C)CC4)cc3)n2)cc1C#Cc1ccc(F)cc1 [Example 9, N-(4-(3-((4-fluorophenyl)ethynyl)-4-methylphenyl)thiazol-2-yl)-4-((4-methylpiperazin-1-yl)methyl)benzamide] | 4 | 2.3 | 2 | > 100 | –
CN1CCN(Cc2ccc(C(=O)Nc3nc(-c4cccc(C#Cc5cc(C(F)(F)F)cc(C(F)(F)F)c5)c4)cs3)cc2)CC1 [Example 33, N-(4-(3-((3,5-bis(trifluoromethyl)phenyl)ethynyl)phenyl)thiazol-2-yl)-4-((4-methylpiperazin-1-yl)methyl)benzamide] | – | – | – | – | 7.1
CN1CCN(C(=O)c2ccc(-c3ccc(C(=O)Nc4nc(-c5cccc(C#Cc6cc(C(F)(F)F)cc(C(F)(F)F)c6)c5)cs4)o3)cc2)CC1 [Example 34, N-(4-(3-((3,5-bis(trifluoromethyl)phenyl)ethynyl)phenyl)thiazol-2-yl)-5-(4-(4-methylpiperazine-1-carbonyl)phenyl)furan-2-carboxamide] | 4 | 1.9 | 2 | > 100 | –
CC(C)[Si](C#Cc1ccc(-c2csc(NC(=O)c3ccc(CN4CCN(C)CC4)cc3)n2)cc1)(C(C)C)C(C)C [Example 35, 4-((4-methylpiperazin-1-yl)methyl)-N-(4-(4-((triisopropylsilyl)ethynyl)phenyl)thiazol-2-yl)benzamide] | – | – | – | – | 7.3
CN1CCN(Cc2ccc(C(=O)Nc3nc(-c4ccc(C#Cc5cc(C(F)(F)F)cc(C(F)(F)F)c5)cc4)cs3)cc2)CC1 [Example 36, N-(4-(4-((3,5-bis(trifluoromethyl)phenyl)ethynyl)phenyl)thiazol-2-yl)-4-((4-methylpiperazin-1-yl)methyl)benzamide] | – | – | – | – | 6.9
CN1CCN(Cc2ccc(C(=O)Nc3nc(-c4ccc(C#C[Si](C)(C)C(C)(C)C)cc4)cs3)cc2)CC1 [Example 37, N-(4-(4-((tert-butyldimethylsilyl)ethynyl)phenyl)thiazol-2-yl)-4-((4-methylpiperazin-1-yl)methyl)benzamide] | – | – | – | – | 2.4
CC(C)[Si](C#Cc1cccc(-c2csc(NC(=O)c3ccc(CN4CCOCC4)cc3)n2)c1)(C(C)C)C(C)C [Example 38, 4-(morpholinomethyl)-N-(4-(3-((triisopropylsilyl)ethynyl)phenyl)thiazol-2-yl)benzamide] | – | – | – | – | > 50
O=C(Nc1nc(-c2cccc(C#Cc3cc(C(F)(F)F)cc(C(F)(F)F)c3)c2)cs1)c1ccc(CN2CCOCC2)cc1 [Example 39, N-(4-(3-((3,5-bis(trifluoromethyl)phenyl)ethynyl)phenyl)thiazol-2-yl)-4-(morpholinomethyl)benzamide] | 33 | 9 | 4 | > 100 | –
CC(C)(C)[Si](C)(C)C#Cc1cccc(-c2csc(NC(=O)c3ccc(CN4CCOCC4)cc3)n2)c1 [Example 40, N-(4-(3-((tert-butyldimethylsilyl)ethynyl)phenyl)thiazol-2-yl)-4-(morpholinomethyl)benzamide] | – | – | – | – | 18
CC(C)(C)[Si](C#Cc1cccc(-c2csc(NC(=O)c3ccc(CN4CCOCC4)cc3)n2)c1)(c1ccccc1)c1ccccc1 [Example 41, N-(4-(3-((tert-butyldiphenylsilyl)ethynyl)phenyl)thiazol-2-yl)-4-(morpholinomethyl)benzamide] | – | – | – | – | > 50
CN1CCN(Cc2ccc(C(=O)Nc3nc(-c4cccc(C#Cc5ccccc5OC(F)(F)F)c4)cs3)cc2)CC1 [Example 42, 4-((4-methylpiperazin-1-yl)methyl)-N-(4-(3-((2-(trifluoromethoxy)phenyl)ethynyl)phenyl)thiazol-2-yl)benzamide] | – | – | – | – | 2.6
CN1CCN(C(=O)c2ccc(-c3ccc(C(=O)Nc4nc(-c5cccc(C#Cc6ccccc6OC(F)(F)F)c5)cs4)o3)cc2)CC1 [Example 43, 5-(4-(4-methylpiperazine-1-carbonyl)phenyl)-N-(4-(3-((2-(trifluoromethoxy)phenyl)ethynyl)phenyl)thiazol-2-yl)furan-2-carboxamide] | 4.5 | 4.9 | 1 | > 100 | –
CC(C)[Si](C#Cc1cccc(-c2csc(NC(=O)c3ccc(CNCCN(C)C)cc3)n2)c1)(C(C)C)C(C)C [Example 44, 4-(((2-(dimethylamino)ethyl)amino)methyl)-N-(4-(3-((triisopropylsilyl)ethynyl)phenyl)thiazol-2-yl)benzamide] | 7.8 | 5.1 | – | > 100 | –
CC(C)[Si](C#Cc1cccc(-c2csc(NC(=O)c3ccc(Cn4cnnn4)cc3)n2)c1)(C(C)C)C(C)C [Example 45] | – | – | – | – | 8
CC(C)[Si](C#Cc1cccc(-c2csc(NC(=O)c3ccc(Cn4ccnc4)cc3)n2)c1)(C(C)C)C(C)C [Example 46, 4-((1H-imidazol-1-yl)methyl)-N-(4-(3-((triisopropylsilyl)ethynyl)phenyl)thiazol-2-yl)benzamide] | – | – | – | – | 11
CC(C)OC(=O)CNCc1ccc(C(=O)Nc2nc(-c3cccc(C#C[Si](C(C)C)(C(C)C)C(C)C)c3)cs2)cc1 [Example 47, isopropyl 2-((4-((4-(3-((triisopropylsilyl)ethynyl)phenyl)thiazol-2-yl)carbamoyl)benzyl)amino)acetate] | – | – | – | – | > 25
CC(C)[Si](C#Cc1cccc(-c2csc(NC(=O)c3ccc(CN4CCN(C)CC4)cc3)n2)c1)(C(C)C)C(C)C [Example 48, 4-((4-methylpiperazin-1-yl)methyl)-N-(4-(3-((triisopropylsilyl)ethynyl)phenyl)thiazol-2-yl)benzamide] | – | – | – | – | 13
C#Cc1cccc(-c2csc(NC(=O)c3ccc(CN4CCN(C)CC4)cc3)n2)c1 [Example 49, N-(4-(3-ethynylphenyl)thiazol-2-yl)-4-((4-methylpiperazin-1-yl)methyl)benzamide] | – | – | – | – | 4
C#CCN1CCN(Cc2ccc(C(=O)Nc3nc(-c4cccc(C#C[Si](C(C)C)(C(C)C)C(C)C)c4)cs3)cc2)CC1 [Example 50, 4-((4-(prop-2-yn-1-yl)piperazin-1-yl)methyl)-N-(4-(3-((triisopropylsilyl)ethynyl)phenyl)thiazol-2-yl)benzamide] | – | – | – | – | > 50
